Assay results reported in the supplement of paper PMC10307832.

How the values were obtained:
Experiment in all cases: relative viability (nuclei count vs DMSO), 5 days (fraction); higher = more cells survive
[1] = compound: CC1=CC(=NN1)NC2=CC(=NC(=N2)/C=C/C3=CC=CC=C3)N4CCN(CC4)C + Cc1nc(Nc2ncc(C(=O)Nc3c(C)cccc3Cl)s2)cc(N2CCN(CCO)CC2)n1 [Dasatinib] (partner 0.075 µM)
Method in brief: (§1)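 Lung cancer cell lines in 1536-well plates were dosed by pin tool the day after seeding, either with one drug alone or with a fixed anchor-drug dose plus five library-drug doses (not always all listed) in √10 steps. After 5 days, cells were fixed and their nuclei stained in one step (final 0.05% Triton X-100, 1% formaldehyde, 1 ug/ml Hoechst), then counted on 4× images. Relative viability is the nuclei count in treated wells divided by that in vehicle wells. Values are medians of duplicate plates.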

Obatoclax + Decitabine = compound: COC1=CC(c2cc3ccccc3[nH]2)=N/C1=C\c1[nH]c(C)cc1C [Obatoclax] + Nc1ncn([C@H]2C[C@H](O)[C@@H](CO)O2)c(=O)n1 [Decitabine] (partner 2 µM)
Method in brief: as §1

Bortezomib + Dasatinib = compound: CC(C)C[C@H](NC(=O)[C@H](Cc1ccccc1)NC(=O)c1cnccn1)B(O)O [Bortezomib] + Cc1nc(Nc2ncc(C(=O)Nc3c(C)cccc3Cl)s2)cc(N2CCN(CCO)CC2)n1 [Dasatinib] (partner 0.075 µM)
Method in brief: as §1

[2] = compound: CC1=CC(=NN1)NC2=CC(=NC(=N2)/C=C/C3=CC=CC=C3)N4CCN(CC4)C + COc1cccc2cc(-c3nc([C@H]4CC[C@H](C(=O)O)CC4)n4ncnc(N)c34)[nH]c12 [OSI-027] (partner 0.5 µM)
Method in brief: as §1

Row | Cell Line | relative viability ([1]; first compound 0.08 µM) | relative viability ([1]; first compound 0.253 µM) | relative viability ([1]; first compound 0.8 µM) | relative viability ([1]; first compound 2.53 µM) | relative viability ([1]; first compound 8 µM) | relative viability (Obatoclax + Decitabine; first compound 0.01 µM) | relative viability (Obatoclax + Decitabine; first compound 0.03162 µM) | relative viability (Obatoclax + Decitabine; first compound 0.1 µM) | relative viability (Obatoclax + Decitabine; first compound 0.3162 µM) | relative viability (Obatoclax + Decitabine; first compound 1 µM) | relative viability (Bortezomib + Dasatinib; first compound 0.0002 µM) | relative viability (Bortezomib + Dasatinib; first compound 0.000632 µM) | relative viability (Bortezomib + Dasatinib; first compound 0.002 µM) | relative viability (Bortezomib + Dasatinib; first compound 0.006325 µM) | relative viability (Bortezomib + Dasatinib; first compound 0.02 µM) | relative viability ([2]; first compound 0.08 µM) | relative viability ([2]; first compound 0.253 µM) | relative viability ([2]; first compound 0.8 µM) | relative viability ([2]; first compound 2.53 µM) | relative viability ([2]; first compound 8 µM)
1 | NCI-H460 | 0.545 | 0.546 | 0.487 | 0.144 | 0.0157 | 0.521 | 0.385 | 0.522 | 0.133 | 0.0944 | 0.437 | 0.507 | 0.514 | 0.342 | 0.0305 | 0.696 | 0.606 | 0.578 | 0.0297 | 0.0153
2 | NCI-H520 | 0.202 | 0.194 | 0.166 | 0.143 | 0.118 | 0.441 | 0.309 | 0.631 | 0.507 | 0.292 | 0.173 | 0.207 | 0.18 | 0.201 | 0.179 | 0.289 | 0.286 | 0.214 | 0.165 | 0.128
3 | NCI-H522 | 0.94 | 0.795 | 0.662 | 0.482 | 0.388 | 0.708 | 0.642 | 0.607 | 0.747 | 0.608 | 0.875 | 0.79 | 0.965 | 0.4 | 0.393 | 0.709 | 0.629 | 0.609 | 0.56 | 0.421
4 | NCI-H596 | 0.638 | 0.522 | 0.536 | 0.357 | 0.216 | 0.953 | 0.986 | 1.04 | 0.848 | 0.79 | 0.488 | 0.519 | 0.596 | 0.2 | 0.184 | 0.633 | 0.72 | 0.671 | 0.34 | 0.247
5 | NCI-H647 | 0.185 | 0.186 | 0.2 | 0.0436 | 0.0226 | 0.422 | 0.27 | 0.438 | 0.3 | 0.112 | 0.203 | 0.156 | 0.188 | 0.0197 | 0.017 | 0.706 | 0.628 | 0.668 | 0.13 | 0.0671
6 | NCI-H661 | 0.824 | 0.808 | 0.853 | 0.243 | 0.237 | 0.539 | 0.532 | 0.594 | 0.558 | 0.489 | 0.851 | 0.836 | 0.773 | 0.331 | 0.168 | 0.774 |  | 0.599 | 0.39 | 0.217
7 | NCI-H727 | 0.372 |  | 0.407 | 0.257 | 0.186 | 0.916 | 0.731 | 0.798 | 0.591 | 0.872 | 0.369 | 0.38 | 0.415 | 0.184 | 0.147 | 0.608 | 0.485 | 0.678 | 0.398 | 0.278
8 | NCI-H838 | 0.3 | 0.279 | 0.247 | 0.255 | 0.141 | 0.471 | 0.412 | 0.511 | 0.338 | 0.32 | 0.271 | 0.261 | 0.32 | 0.209 | 0.16 | 0.346 | 0.413 | 0.385 | 0.208 | 0.103
9 | NCI-H1355 | 0.723 | 0.727 | 0.684 | 0.248 | 0.121 | 0.368 | 0.347 | 0.338 | 0.334 | 0.335 | 0.69 | 0.753 | 0.813 | 0.18 | 0.156 | 0.378 | 0.374 | 0.389 | 0.213 | 0.105
10 | NCI-H1395 | 0.424 | 0.409 | 0.4 | 0.344 | 0.28 | 0.716 | 0.735 | 0.754 | 0.695 | 0.513 | 0.428 | 0.41 | 0.427 | 0.352 | 0.306 | 0.56 | 0.621 | 0.625 | 0.387 | 0.26
11 | NCI-H1437 | 0.377 | 0.455 | 0.404 | 0.273 | 0.0967 | 0.626 | 0.426 | 0.601 | 0.537 | 0.43 | 0.335 | 0.374 | 0.486 | 0.129 | 0.11 | 0.84 | 0.89 | 0.947 | 0.737 | 0.164
12 | NCI-H1650 | 0.376 | 0.288 | 0.37 | 0.125 | 0.0926 | 0.457 | 0.352 | 0.47 | 0.268 | 0.267 | 0.354 | 0.302 | 0.181 | 0.197 | 0.207 | 0.645 | 0.782 | 0.624 | 0.154 | 0.0984
13 | NCI-H1651 | 0.423 | 0.398 | 0.407 | 0.171 | 0.116 | 0.582 | 0.338 | 0.434 | 0.355 | 0.495 | 0.387 | 0.442 | 0.153 | 0.105 | 0.0988 | 0.613 | 0.749 | 0.63 | 0.293 | 0.133
14 | NCI-H1666 | 0.787 | 0.874 | 0.778 | 0.659 | 0.294 | 0.731 | 0.688 | 0.68 | 0.586 | 0.691 | 0.759 | 0.845 | 0.837 | 0.329 | 0.326 | 0.822 | 0.921 | 0.86 | 0.79 | 0.432
15 | NCI-H1734 | 0.4 | 0.454 | 0.464 | 0.257 | 0.111 | 0.504 | 0.467 | 0.511 | 0.491 | 0.506 | 0.469 | 0.45 | 0.516 | 0.112 | 0.109 | 0.637 | 0.527 | 0.475 | 0.234 | 0.139
